# Assay results: patent US7034005B2, “Use of agent for suppressing infection and proliferation of human immunodeficiency syndrome virus” (The Kitasato Institute, priority 2002, dated 2006)
# Assays:
# [1] = tested on: HIV-1BAL strain in GM type macrophage (GM-MΦ) derived from human monocytes; assay: Proliferation of HIV-1 in GM-MΦ: p24 protein in culture supernatant by sandwich ELISA; type: cell-based; conditions: for viral generation in GM-MΦ: 30 μM, HIV-1BAL, all assay points up to 14 days, similar to DMSO control (FIG. 14)
# Method: (§1) Macrophages derived from monocytes were prepared by culturing the recovered monocytes in the presence of M-CSF (macrophage colony-stimulating factor) (10^4 U/ml, provided by Morinaga Milk Co.), granulocytes and granulocyte-macrophage colony-stimulating factor, GM-CSF) (500 U/ml, provided by Japan Scheling Plough Co., Osaka, or purchased from R & S Genzyme-TECHNE Inc.) with RPMI1640 medium added with FCS10% (Nissui Seiyaku Co., Tokyo) for 7–8 days.
# (§2) The macrophage prepared by differential induction of M-CSF from human monocytes is designated as M type macrophage (M type MΦ or M-MΦ) and the macrophage prepared by differential induction of GM-CSF from human monocytes is designated as GM type macrophage (GM type MΦ or GM-MΦ) Further, alveolar macrophage (alveolar MΦ or A-MΦ) was prepared as follows. Cells in the alveolar lavage liquid obtained from the alveolar lavage of healthy volunteers were recovered, suspended and adhered to plastics, then the non-adhered cells were washed out and the remained adhered cells were designated as the alveolar MΦ.
# (§3) Infection of HIV-1 to macrophage was performed as follows. Macrophage directed viral strains, HIV-1JR-FL and HIV-1BAL, were infected for 2 hours in contact with M-MΦ, GM-MΦ and A-MΦ (adjusted to 2.5×10^5/well, Flacon No3043: Becton Dickinson Labware, Inc. U.S.)at low concentration (p24 antigen titer 50 ng/ml, TCID50=3000/ml virus to final concentration at 100 pg/ml), and non-adsorbed virus to the macrophage was washed out, and cultured with adding fresh medium. In case of the medium with M-MΦ, M-CSF was added (10^4 U/ml), and that of the medium with GM-MΦ, GM-CSF was added (500 U/ml).
# (§4) Proliferation of virus was examined with the released viral particles in the culture supernatant after the infection by the sandwich ELISA using two types of anti-p24 antibody (Nu24 and 10B5^13). The following JAM62 and JAM65 were used as LTR (HIV long terminal repeat)-gap gene primer. The following JAM63 and JAM 64 were used as the internal primer for the nested PCR. • JAM62: • 5′-[…]-3′ (SEQ ID NO: 1) • JAM65: • 5′-[…]-3′ (SEQ ID NO: 2) • JAM63: • 5′-GTGTOACTCTGGTAACTAGAGATCC-3′ (SEQ ID NO: 3) • JAM64: • 5′-[…]-3′ (SEQ ID NO: 4) (1-4) Assay of Expression of Tyrosine Kinase Hck Protein and Transcription Factor C/EBPβ Protein
# (§5) In order to show growth suppression effect of the present invention, among macrolide derivatives, EM, EM201, EM202, EM703, CAM, EM722, EM730, EM732, EM736, EM734, EM735, EM747, EM748, EM743, EM746, EM750 or EM751 was dissolved in DMSO with each 100 mM concentration, and used in dilution with the medium thereafter. A control group was M-MΦ treated only with DMSO used for dissolving macrolide derivatives.
# (§6) M-MΦ and GM-M Φ were subjected to contact infection with HIV-1BAL strain for 2 hours, added 30 μM of EM, EM201, EM202, EM703, CAM,EM722, EM730, EM732, EM736, EM734, EM735, EM747, EM748, EM743, EM746, EM750 or EM751, incubated for 14 days and amount of p24 protein in the cultured supernatant was assayed in the time-dependent manner.
# [2] = tested on: tyrosine kinase Hck protein; assay: Expression of tyrosine kinase Hck protein in M-MΦ by Western blotting; type: cell-based, human; conditions: 30 μM, day 2 after HIV-1BAL infection, compared with DMSO control (FIG. 18)
# Excerpt: (§7) Expression of tyrosine kinase Hck protein and transcription factor C/EBPβ protein in macrophage was examined after solubilizing the macrophage in SDS-PAGE sample buffer, performing 10% SDS-polyacrylamide electrophoresis, transferring the protein on the gel to immobilon P membrane (Millipore Inc. U.S.) and checking antibodies against these proteins by Western blotting. Antibody to tyrosine kinase Hck protein (N-30) and antibody to C/EBPβ (C-19) were purchased from Santacluse Inc. (U.S.). Western blotting was detected by Amersham ELC Regent (Amersham International plc, Buckinghamshire, UK). Strength of bands was expressed by PSL (photostimulating luminescence) value (A/mm^2).
# (§8) These probes were dissolved in the serum free RPMI1640 medium, in which lipofectin (Life Technology Inc., U.S.) was dissolved at 5 μM concentration, at room temperature for 30 minutes, added with RPMI1640 medium, which contains 10% FCS, to the macrophage (final concentration 2 μM) and incubated at 37° C. for 24 hours. Thereafter, cells were washed with the medium, added the RPMI1640 medium containing 10% FCS without oligonucleotide, further cultured for 24 hours, and then infected with HIV-1.
# Consequently, M-MΦ was subjected to contact infection with HIV-1BAL strain for 2 hours, added 30 μM of EM, EM201, EM202, EM703 or CAM, incubated and expression of tyrosine kinase Hck protein was observed on day 2 after the infection by Western blotting.
# [3] = tested on: HIV-1BAL strain in M type macrophage (M-MΦ) derived from human monocytes; assay: Proliferation of HIV-1 in M-MΦ: p24 protein in culture supernatant by sandwich ELISA; type: cell-based; conditions: for suppression of viral generation (p24 in culture supernatant) in M-MΦ: 30 μM, HIV-1BAL, 14 days of culture, compared with DMSO control (FIG. 13); for viral proliferation at 300 μM in M-MΦ: also observed in DMSO control, ascribed to cytotoxicity of DMSO; for concentration dependence of suppressive action on HIV-1BAL in M-MΦ: various concentrations (FIG. 16)
# Method: as §1, §2, §3, §4, §5, §6
# [4] = tested on: HIV-1BAL strain infected M-MΦ; assay: Cytopathy (MGC formation) of HIV-1 infected M-MΦ; type: cell-based, human; conditions: 30 μM, HIV-1BAL (FIG. 17)
# Method: Formation of cell cluster and cell fusion was observed from the 2nd day of the incubation only in virus producing M-MΦ and formation of multinucleatic giant cells were recognized from the culture day 4–7 [refer to FIG. 2(A)]. On the other hand, in GM-MΦ without generation of virus, nomorphological changes were observed [refer to FIG. 2(B)].
# M-MΦ was subjected to contact infection with HIV-1BAL strain for 2 hours, added 30 μM of EM, EM201, EM202, EM703 or CAM, incubated and observed the cell morphology.
# p38MAPK = assay: Tyrosine phosphorylation (activation) of p38MAPK in HIV-1 infected M-MΦ by Western blotting; type: cell-based, human; conditions: 30 μM, day 2 of culture, HIV-1BAL infected M-MΦ, compared with DMSO (FIG. 19(A))
# Method: (§9) P38MAPK and ERK1/2 activation were determined using P38MAPK antibody, anti-ERK1/2 antibody, anti-tyrosine phosphorylation P38MAPK antibody and anti-tyrosine phosphorylation ERK1/2 antibody (New England Biolabs, Inc. U.S.), and phosphorylation reaction of these molecules was determined by Western blotting.
# Thirty μM of EM, EM201, EM202, EM703 or CAM were added to M-MΦ infected with HIV-1BAL strain, tyrosine phosphorylation of p38MAPK was detected on day 2 of the culture by Western blotting. […] In any groups, total amount of p38MAPK (total sum of phosphorylated and non-phosphorylated p38MARK) was equal.
# ERK1/2 = assay: Tyrosine phosphorylation (activation) of ERK1/2 in HIV-1 infected M-MΦ by Western blotting; type: cell-based, human; conditions: 30 μM, HIV-1BAL infected M-MΦ, compared with DMSO (FIG. 19(B))
# Method: as §9
# In any groups, total amount of ERK1/2 (total sum of phosphorylated and non-phosphorylated p38MARK) was equal [refer to FIG. 19(B)].
# [5] = tested on: transcription factor C/EBPβ protein; assay: Expression of C/EBPβ protein in GM-MΦ by Western blotting; type: cell-based, human; conditions: oligonucleotide treated GM-MΦ (FIG. 11)
# Excerpt: as §7, §8
Compound,viral generation in GM-MΦ [1],expression of tyrosine kinase Hck protein in HIV-1 infected M-MΦ [2],suppression of viral generation (p24 in culture supernatant) in M-MΦ [3],viral proliferation at 300 μM in M-MΦ [3],concentration dependence of suppressive action on HIV-1BAL in M-MΦ [3],cytopathic effect (MGC formation) in HIV-1 infected M-MΦ [4],tyrosine phosphorylation of p38MAPK (p38MAPK),tyrosine phosphorylation of ERK1/2 (ERK1/2),HIV-1 growth promotion (p24 in culture supernatant) in oligonucleotide pretreated GM-MΦ ([1]; HIV-1 infection after pretreatment (FIG. 12)),changes in expression of C/EBPβ in GM-MΦ [5],proliferation of virus in M-MΦ at 3 μM ([3]; 3 μM)
"CC[C@H]1OC(=O)[C@H](C)[C@@H](O[C@H]2C[C@@](C)(OC)[C@@H](O)[C@H](C)O2)[C@H](C)[C@@H](O[C@@H]2O[C@H](C)C[C@H](N(C)C)[C@H]2O)[C@](C)(OC)C[C@@H](C)C(=O)[C@H](C)[C@@H](O)[C@]1(C)O [CAM, Oxacyclotetradecane-2,10-dione,4-[(2,6-dideoxy-3-O-methyl-α-L-ribo-hexopyranosyl)oxy]-14-ethyl-12,13-dihydroxy-7-methoxy-3,5,7,9,11,13-hexamethyl-6-[[3,4,6-trideoxy-3-(dimethylamino)-β-D-xylo-hexopyranosyl]oxy], reference compound]",almost no viral generation was recognized,"the suppression of tyrosine kinase Hck protein was observed, though not so strong",approximately ½,viral proliferation at 300 μM was observed,exhibited suppression of viral production depending upon drug concentration,formation of MGC was slightly recognized,"recognized to decrease, though not so strong",weakly recognized as same in the control group,–,–,–
"C/EBPβ-S: Phosphorothioate-modified sense oligonucleotide probe of C/EBPβ, 5′-CCGCGTTCATOCAACOCCTG-3′ (SEQ ID NO: 9) (sense CCGCGTTCATGCAACGCCTG; all phosphorothioate, sugars by position and methylation of C not given here) [reference compound]",–,–,–,–,–,–,–,–,not recognized,not recognized,–
"11-(1′-hydroxypropyl)-3-[2,6-dideoxy-3-C-methyl-α-L-ribo-hexopyranosyl]oxy]-5-[(3,4,6-trideoxy-3-(dimethylamino)-β-D-xylo-hexopyranosyl)oxy]-2,4,6,8,11,14-hexamethyl-10,13,15-tri-oxatricyclo[9.2.1.1.^9.6]-pentadecane-1-one [EM201]",almost no viral generation was recognized,strongly suppressed,almost no p24 was detected,viral proliferation at 300 μM was observed,concentration dependent manner,no cytopathic effect such as MCG formation was observed,significantly decreased,promotion of tyrosine phosphorylation of ERK1/2 was recognized,–,–,inhibited almost completely the proliferation of virus
